From PubChem BioAssay (NCI)
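Results reflect a 48-hour exposure of cells in 96-well plates to compound at five concentrations. At the GI50, growth is halved. The concentration for full growth arrest is given as TGI.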

Assays:
Assay in all cases: DTP human tumour cell line panel, 48 h
T-47D breast = system: T-47D breast
SN12C renal = system: SN12C renal
OVCAR-4 ovarian = system: OVCAR-4 ovarian
K-562 leukemia = system: K-562 leukemia
DU-145 prostate = system: DU-145 prostate
SNB-75 CNS = system: SNB-75 CNS
BT-549 breast = system: BT-549 breast
SK-MEL-28 melanoma = system: SK-MEL-28 melanoma
SK-OV-3 ovarian = system: SK-OV-3 ovarian
LOX IMVI melanoma = system: LOX IMVI melanoma
RPMI-8226 leukemia = system: RPMI-8226 leukemia
CCRF-CEM leukemia = system: CCRF-CEM leukemia
HT29 colon = system: HT29 colon
U251 CNS = system: U251 CNS
UACC-257 melanoma = system: UACC-257 melanoma
MALME-3M melanoma = system: MALME-3M melanoma
HS 578T breast = system: HS 578T breast
SF-539 CNS = system: SF-539 CNS
TK-10 renal = system: TK-10 renal
SK-MEL-5 melanoma = system: SK-MEL-5 melanoma
MDA-MB-435 = system: MDA-MB-435
786-0 renal = system: 786-0 renal
ACHN renal = system: ACHN renal
M14 melanoma = system: M14 melanoma
NCI-H460 lung = system: NCI-H460 lung
NCI-H226 lung = system: NCI-H226 lung
SK-MEL-2 melanoma = system: SK-MEL-2 melanoma
COLO 205 colon = system: COLO 205 colon
HL-60(TB) leukemia = system: HL-60(TB) leukemia
HCT-15 colon = system: HCT-15 colon
SF-295 CNS = system: SF-295 CNS
HOP-62 NSCLC = system: HOP-62 NSCLC
SW-620 colon = system: SW-620 colon
NCI/ADR-RES ovarian = system: NCI/ADR-RES ovarian
IGROV1 ovarian = system: IGROV1 ovarian
HCT-116 colon = system: HCT-116 colon
UACC-62 melanoma = system: UACC-62 melanoma
HOP-92 NSCLC = system: HOP-92 NSCLC
A549 NSCLC = system: A549 NSCLC
SF-268 CNS = system: SF-268 CNS
SNB-19 CNS = system: SNB-19 CNS
OVCAR-5 ovarian = system: OVCAR-5 ovarian
NCI-H522 lung = system: NCI-H522 lung
PC-3 prostate = system: PC-3 prostate
NCI-H23 lung = system: NCI-H23 lung
RXF 393 renal = system: RXF 393 renal
CAKI-1 renal = system: CAKI-1 renal
UO-31 renal = system: UO-31 renal
MDA-MB-231 breast = system: MDA-MB-231 breast
MOLT-4 leukemia = system: MOLT-4 leukemia
OVCAR-3 ovarian = system: OVCAR-3 ovarian
SR leukemia = system: SR leukemia
HCC-2998 colon = system: HCC-2998 colon
MCF7 breast = system: MCF7 breast
OVCAR-8 ovarian = system: OVCAR-8 ovarian
A498 renal = system: A498 renal
KM12 colon = system: KM12 colon

C=CC(=O)N1CC2(CCC(n3nc(-c4ccc(Oc5ccccc5)cc4)c4c(N)ncnc43)CC2)C1
GI50 (T-47D breast): 19.7 nM
TGI (T-47D breast): 5890 nM
GI50 (SN12C renal): 179 nM
TGI (SN12C renal): 10600 nM
GI50 (OVCAR-4 ovarian): 1460 nM
TGI (OVCAR-4 ovarian): 14200 nM
GI50 (K-562 leukemia): 698 nM
TGI (K-562 leukemia): 25600 nM
GI50 (DU-145 prostate): 368 nM
TGI (DU-145 prostate): 2210 nM
GI50 (SNB-75 CNS): < 15.1 nM
TGI (SNB-75 CNS): 174 nM
GI50 (BT-549 breast): 245 nM
TGI (BT-549 breast): 9780 nM
GI50 (SK-MEL-28 melanoma): 2450 nM
TGI (SK-MEL-28 melanoma): 14000 nM
GI50 (SK-OV-3 ovarian): 52.5 nM
TGI (SK-OV-3 ovarian): 787 nM
GI50 (LOX IMVI melanoma): < 10.6 nM
TGI (LOX IMVI melanoma): 847 nM
GI50 (RPMI-8226 leukemia): 1510 nM
TGI (RPMI-8226 leukemia): 5800 nM
GI50 (CCRF-CEM leukemia): 3650 nM
TGI (CCRF-CEM leukemia): 21900 nM
GI50 (HT29 colon): < 17.5 nM
TGI (HT29 colon): 1340 nM
GI50 (U251 CNS): 617 nM
TGI (U251 CNS): 12700 nM
GI50 (UACC-257 melanoma): 1460 nM
TGI (UACC-257 melanoma): 8620 nM
GI50 (MALME-3M melanoma): 1500 nM
TGI (MALME-3M melanoma): 9210 nM
GI50 (HS 578T breast): 108 nM
TGI (HS 578T breast): 1540 nM
GI50 (SF-539 CNS): 174 nM
TGI (SF-539 CNS): 1910 nM
GI50 (TK-10 renal): 36.2 nM
TGI (TK-10 renal): 266 nM
GI50 (SK-MEL-5 melanoma): 1550 nM
TGI (SK-MEL-5 melanoma): 2970 nM
GI50 (MDA-MB-435): 1740 nM
TGI (MDA-MB-435): 7130 nM
GI50 (786-0 renal): 30.4 nM
TGI (786-0 renal): 1630 nM
GI50 (ACHN renal): < 12.3 nM
TGI (ACHN renal): 362 nM
GI50 (M14 melanoma): 1430 nM
TGI (M14 melanoma): 5230 nM
GI50 (NCI-H460 lung): 3430 nM
TGI (NCI-H460 lung): 16100 nM
GI50 (NCI-H226 lung): 861 nM
TGI (NCI-H226 lung): 15000 nM
GI50 (SK-MEL-2 melanoma): 1500 nM
TGI (SK-MEL-2 melanoma): 3630 nM
GI50 (COLO 205 colon): 143 nM
TGI (COLO 205 colon): 1280 nM
GI50 (HL-60(TB) leukemia): 3200 nM
TGI (HL-60(TB) leukemia): 10000 nM
GI50 (HCT-15 colon): 200 nM
TGI (HCT-15 colon): 12100 nM
GI50 (SF-295 CNS): 2300 nM
TGI (SF-295 CNS): 15700 nM
GI50 (HOP-62 NSCLC): 10.3 nM
TGI (HOP-62 NSCLC): 6500 nM
GI50 (SW-620 colon): 3980 nM
TGI (SW-620 colon): 21700 nM
GI50 (NCI/ADR-RES ovarian): 1740 nM
TGI (NCI/ADR-RES ovarian): 17500 nM
GI50 (IGROV1 ovarian): < 12.5 nM
TGI (IGROV1 ovarian): 462 nM
GI50 (HCT-116 colon): 40.7 nM
TGI (HCT-116 colon): 1880 nM
GI50 (UACC-62 melanoma): 1020 nM
TGI (UACC-62 melanoma): 4850 nM
GI50 (HOP-92 NSCLC): < 14 nM
TGI (HOP-92 NSCLC): 366 nM
GI50 (A549 NSCLC): 1460 nM
TGI (A549 NSCLC): 9410 nM
GI50 (SF-268 CNS): 255 nM
TGI (SF-268 CNS): 6040 nM
GI50 (SNB-19 CNS): 1230 nM
TGI (SNB-19 CNS): 15700 nM
GI50 (OVCAR-5 ovarian): 130 nM
TGI (OVCAR-5 ovarian): 16600 nM
GI50 (NCI-H522 lung): 67.6 nM
TGI (NCI-H522 lung): 995 nM
GI50 (PC-3 prostate): 1090 nM
TGI (PC-3 prostate): 9200 nM
GI50 (NCI-H23 lung): 4390 nM
TGI (NCI-H23 lung): 17300 nM
GI50 (RXF 393 renal): 16.8 nM
TGI (RXF 393 renal): 267 nM
GI50 (CAKI-1 renal): 28.3 nM
TGI (CAKI-1 renal): 709 nM
GI50 (UO-31 renal): 46.8 nM
TGI (UO-31 renal): 1660 nM
GI50 (MDA-MB-231 breast): 281 nM
TGI (MDA-MB-231 breast): 11100 nM
GI50 (MOLT-4 leukemia): 1930 nM
TGI (MOLT-4 leukemia): 6390 nM
GI50 (OVCAR-3 ovarian): 641 nM
TGI (OVCAR-3 ovarian): 9610 nM
GI50 (SR leukemia): 3350 nM
TGI (SR leukemia): 18900 nM
GI50 (HCC-2998 colon): 4800 nM
TGI (HCC-2998 colon): 19600 nM
GI50 (MCF7 breast): 424 nM
TGI (MCF7 breast): 11400 nM
GI50 (OVCAR-8 ovarian): 1850 nM
TGI (OVCAR-8 ovarian): 13100 nM
GI50 (A498 renal): < 22.3 nM
GI50 (KM12 colon): 3020 nM
TGI (KM12 colon): 10800 nM
